Laboratory results: ChEMBL document CHEMBL3272039, “Potenial antitumor agents. 28. Deoxyribonucleic acid polyintercalating agents” (J Med Chem, 1978)

Experiments:
[1] = organism: Bos taurus; assay: Displacement of ethidium bromide from calf thymus DNA by spectrofluorometric analysis
[2] = system: P388; assay: Antitumor activity against mouse P388 cells allografted in ip dosed BDF1 mouse at optimum dose administered qd for 5 days relative to control; type: functional
[3] = system: L1210; assay: Antitumor activity against mouse L1210 cells allografted in ip dosed BDF1 mouse at optimum dose administered qd for 5 days relative to control; type: functional
[4] = system: Mus musculus; assay: Toxicity in ip dosed BDF1 mouse allografted with mouse P388 cells administered qd for 5 days; type: organism-based; conditions: mouse, in vivo, 120 h
[5] = Toxicity in ip dosed BDF1 mouse allografted with mouse L1210 cells administered qd for 5 days; type: organism-based; conditions: BDF1, mouse, in vivo
[6] = Lipophilic-hydrophilic balance, Rm of the compound by reversed-phase chromatographic analysis; type: physicochemical
[7] = system: Pseudoalteromonas; assay: Induction of bacteriophage PM2 closed circular DNA unwinding assessed as drug per nucleic acid phosphate ratio at equivalence by viscometric analysis

| SMILES | C50 [1] [µM] | ILS [2] [%] | ILS [3] [%] | Activity [4] [mg/kg/day] | MTD at 120 h [5] [mg/kg/day] | Rm [6] | Ratio [7] |
| --- | --- | --- | --- | --- | --- | --- | --- |
| Cl.O.O=S(=O)(CCCS(=O)(=O)Nc1ccc(Nc2c3ccccc3nc3ccccc23)cc1)Nc1ccc(Nc2c3ccccc3nc3ccccc23)cc1 | 0.064 | 29 | >25 | 250 | 250 | -0.16 | – |
| Cl.O.O=S(=O)(CCCNc1c2ccccc2nc2ccccc12)Nc1ccc(Nc2c3ccccc3nc3ccccc23)cc1 | 0.1 | 38 | >25 | 300 | 300 | -0.25 | – |
| Cl.O.O=S(=O)(CCCCCNc1ccnc2ccccc12)Nc1ccc(Nc2c3ccccc3nc3ccccc23)cc1 | 0.4 | 37 | >25 | 200 | 200 | -0.24 | – |
| Cl.O.O=S(=O)(CCNc1c2ccccc2nc2ccccc12)Nc1ccc(Nc2c3ccccc3nc3ccccc23)cc1 | 0.09 | 31 | >25 | 60 | 60 | -0.17 | 0.078 |
| Br.O.O=S(=O)(CCNc1ccnc2ccccc12)Nc1ccc(Nc2c3ccccc3nc3ccccc23)cc1 | 0.12 | 36 | >25 | 90 | 90 | -0.54 | 0.12 |
